Results published in ChEMBL document CHEMBL4359853, “Antiproliferative activity of (R)-4'-methylklavuzon on hepatocellular carcinoma cells and EpCAM+/CD133+ cancer stem cells via SIRT1 and Exportin-1 (CRM1) inhibition” (Eur J Med Chem, 2019).
Activity calls are given as the source filed them. The rule behind the calls is not given here.

What was measured:
Huh-7 [1] = experiment: Cell cycle arrest in human HuH7 cells assessed as increase in accumulation at G1 phase at 1 to 1.25 uM measured after 48 hrs by propidium iodide staining based flow cytometry analysis; format: functional
Homo sapiens [2] = species on record: Homo sapiens; experiment: Inhibition of Sirtuin/HDAC in human HUH7 negative EpCAM/CD133 cells assessed as decrease in enzymatic activity at 0.10 to 5 uM measured after 24 hrs relative to control
Huh-7 [3] = experiment: Induction of apoptosis in human HuH7 cells assessed as change in cell morphology at 0.1 to 10 uM measured after 48 hrs by 2D microscopic analysis; format: functional, cell-based
Homo sapiens [4] = species on record: Homo sapiens; experiment: Inhibition of Sirtuin/HDAC in human HUH7 cells assessed as decrease in enzymatic activity at 0.10 to 5 uM measured after 24 hrs relative to control; format: cell-based
Huh-7 [5] = experiment: Upregulation of SIRT1 in human HuH7 cells assessed as fold change at 3 uM measured after 24 hrs by ELISA relative to control; format: functional
Huh-7 [6] = experiment: Cytotoxicity against human HuH7 cells expressing positive EpCAM/CD133 assessed as reduction in cell viability measured after 24 hrs by MTT assay; format: functional, cell-based; conditions: Huh-7, 24 h
[7] = biological target: Exportin-1 (Homo sapiens) (UniProt O14980); experiment: Inhibition of CRM1 in human HuH7 cells assessed as accumulation of RIOK2 in nucleus at 1 and 10 uM measured after 24 hrs by DAPI staining based confocal microscopy analysis; format: cell-based
HepG2 [8] = experiment: Induction of 3D spheroid death in human HepG2 cells assessed as upregulation of p53 measured after 24 hrs by DAPI staining based fluorescence microscopy analysis assay; format: functional, cell-based
HepG2 [9] = experiment: Induction of apoptosis in human 3D HepG2 spheroids at 10 uM measured after 24 hrs by propidium iodide staining based immunofluorescence microscopy analysis; format: functional, cell-based
Huh-7 [10] = experiment: Cytotoxicity against human HuH7 cells assessed as effect on SIRT1 protein level at 5 uM measured after 24 hrs by ELISA; format: functional, cell-based
[11] = biological target: Exportin-1 (Homo sapiens) (UniProt O14980); experiment: Inhibition of CRM1 in human HepG2 cells assessed as accumulation of RIOK2 in nucleus at 1 and 10 uM measured after 24 hrs by DAPI staining based confocal microscopy analysis; format: cell-based
Homo sapiens [12] = species on record: Homo sapiens; experiment: Inhibition of Sirtuin/HDAC in human HuH7 cells expressing positive EpCAM/CD133 assessed as decrease in enzymatic activity at 0.10 to 5 uM measured after 24 hrs relative to control; format: cell-based
Huh-7 [13] = experiment: Cytotoxicity against human HuH7 cells negative EpCAM/CD133 assessed as reduction in cell viability measured after 48 to 72 hrs by MTT assay; format: functional, cell-based
Huh-7 [14] = experiment: Upregulation of p21 expression in human HuH7 cells expressing positive EpCAM/CD133 at 1 to 3 uM measured after 72 hrs by SYBR-green based qPCR analysis; format: functional, cell-based
Huh-7 [15] = experiment: Induction of apoptosis in human HuH7 cells assessed as change in cell numbers at 0.1 to 10 uM measured after 48 hrs by 2D microscopic analysis; format: functional, cell-based
Huh-7 [16] = experiment: Upregulation of SIRT1 in human HuH7 cells measured after 24 hrs by ELISA; format: functional, cell-based
Homo sapiens [17] = species on record: Homo sapiens; experiment: Inhibition of Sirtuin/HDAC in human HUH7 cells assessed as decrease in cell viability measured after 24 hrs; format: cell-based
HepG2 [18] = experiment: Cytotoxicity against human HepG2 cells assessed as reduction in cell viability measured after 48 hrs by MTT assay; format: functional, cell-based; conditions: HepG2, 48 h
Huh-7 [19] = experiment: Cell cycle arrest in human HuH7 negative EpCAM/CD133 cells assessed as increase in accumulation at G1 phase at 10 uM measured after 48 hrs by propidium iodide staining based flow cytometry analysis; format: functional
Huh-7 [20] = experiment: Induction of apoptosis in human HuH7 positive EpCAM/CD133 cells measured after 48 hrs by Annexin V-FITC/propidium iodide staining based flow cytometry analysis; format: functional, cell-based
Huh-7 [21] = experiment: Cytotoxicity against human HuH7 cells assessed as reduction in cell viability measured after 24 hrs by MTT assay; format: functional, cell-based; conditions: Huh-7, 24 h
Huh-7 [22] = experiment: Induction of apoptosis in human HuH7 negative EpCAM/CD133 cells assessed as change in cell number at 0.1 to 10 uM measured after 48 hrs by 2D microscopic analysis; format: functional, cell-based
Huh-7 [23] = experiment: Cell cycle arrest in human HuH7 positive EpCAM/CD133 cells assessed as increase in accumulation at G1 phase at 1 to 1.25 uM measured after 48 hrs by propidium iodide staining based flow cytometry analysis; format: functional
[24] = biological target: Exportin-1 (Homo sapiens) (UniProt O14980); experiment: Inhibition of CRM1 in human HuH7 cells assessed as accumulation of RIOK2 in nucleus at 0.1 to 10 uM measured after 6 hrs by DAPI staining based confocal microscopy analysis; format: cell-based
Huh-7 [25] = experiment: Induction of apoptosis in human HuH7 cells expressing negative EpCAM/CD133 assessed as change in cell number at 0.1 to 10 uM measured after 48 hrs by 2D microscopic analysis; format: functional, cell-based
[26] = biological target: Exportin-1 (Homo sapiens) (UniProt O14980); experiment: Inhibition of CRM1 in human HuH7 cells assessed as upregulation of p53 by measuring accumulation in nucleus at 0.1 to 10 uM measured after 24 to 48 hrs by DAPI staining based immunofluorescence microscopy analysis; format: cell-based
Huh-7 [27] = experiment: Induction of apoptosis in human HuH7 cells expressing positive EpCAM/CD133 assessed as change in cell morphology at 0.1 to 10 uM measured after 48 hrs by 2D microscopic analysis; format: functional, cell-based
[28] = biological target: Exportin-1 (Homo sapiens) (UniProt O14980); experiment: Inhibition of CRM1 in human HepG2 cells assessed as accumulation of RIOK2 in nucleus at 0.1 to 10 uM measured after 6 hrs by DAPI staining based confocal microscopy analysis; format: cell-based
Huh-7 [29] = experiment: Cell cycle arrest in human HuH7 negative EpCAM/CD133 cells assessed as increase in accumulation at G2 phase at 10 uM measured after 48 hrs by propidium iodide staining based flow cytometry analysis; format: functional
HepG2 [30] = experiment: Induction of apoptosis in human 3D HepG2 spheroids at 0.1 uM measured after 24 hrs by propidium iodide staining based immunofluorescence microscopy analysis; format: functional, cell-based

Exportin-1 (Homo sapiens), sequence (O14980 whole entry): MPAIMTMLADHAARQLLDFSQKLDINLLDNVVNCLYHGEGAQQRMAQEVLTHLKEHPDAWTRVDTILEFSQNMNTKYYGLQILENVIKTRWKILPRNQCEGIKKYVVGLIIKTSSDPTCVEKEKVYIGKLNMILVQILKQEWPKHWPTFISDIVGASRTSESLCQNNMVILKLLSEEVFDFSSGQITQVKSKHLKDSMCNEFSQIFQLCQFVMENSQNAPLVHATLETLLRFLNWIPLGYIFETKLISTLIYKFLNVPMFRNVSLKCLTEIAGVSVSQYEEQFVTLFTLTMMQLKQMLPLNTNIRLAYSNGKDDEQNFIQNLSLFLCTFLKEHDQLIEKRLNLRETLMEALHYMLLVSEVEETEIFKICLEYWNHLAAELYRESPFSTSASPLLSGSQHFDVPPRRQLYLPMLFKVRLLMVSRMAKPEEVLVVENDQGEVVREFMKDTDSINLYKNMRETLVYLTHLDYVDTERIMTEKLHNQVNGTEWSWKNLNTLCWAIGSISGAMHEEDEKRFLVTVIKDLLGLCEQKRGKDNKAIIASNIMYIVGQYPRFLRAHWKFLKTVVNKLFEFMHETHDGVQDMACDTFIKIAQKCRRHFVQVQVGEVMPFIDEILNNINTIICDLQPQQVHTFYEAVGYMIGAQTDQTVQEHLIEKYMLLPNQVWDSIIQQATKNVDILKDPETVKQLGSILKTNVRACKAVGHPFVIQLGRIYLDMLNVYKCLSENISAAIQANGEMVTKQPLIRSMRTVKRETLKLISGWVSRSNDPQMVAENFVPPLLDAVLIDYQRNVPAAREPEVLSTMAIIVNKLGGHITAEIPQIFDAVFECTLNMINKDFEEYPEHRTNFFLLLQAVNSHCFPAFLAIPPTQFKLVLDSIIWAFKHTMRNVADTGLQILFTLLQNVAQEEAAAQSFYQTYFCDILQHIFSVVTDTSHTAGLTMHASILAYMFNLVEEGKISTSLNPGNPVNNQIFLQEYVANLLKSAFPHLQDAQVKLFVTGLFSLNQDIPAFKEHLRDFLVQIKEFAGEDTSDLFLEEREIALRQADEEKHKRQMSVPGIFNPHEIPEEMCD

In the case of `Cc1ccc([C@H]2CC=CC(=O)O2)c2ccccc12`, the Activity (Huh-7 [1]) is reported as “Active”, the Activity (Homo sapiens [2]) is reported as “Active” and the Activity (Huh-7 [3]) is reported as “Active”. The inhibition (Homo sapiens [4]) was 35 to 40%, the “fold change (FC)” value (Huh-7 [5]) was 3.9 and the IC50 (Huh-7 [6]) was 10 µM. For the same compound, the inhibition [7] was “Active”, the Activity (HepG2 [8]) was “Dose-dependent effect” and the Activity (HepG2 [9]) was “Active”. The Activity (Huh-7 [10]) was “Active”, the inhibition [11] was “Active” and the inhibition (Homo sapiens [12]) was 32 to 39%. For the same compound, the IC50 (Huh-7 [13]) was 1.25 µM, the Activity (Huh-7 [14]) was “Active” and the Activity (Huh-7 [15]) was “Active”. The Activity (Huh-7 [16]) was “Dose-dependent effect”, the inhibition (Homo sapiens [17]) was “Active” and the IC50 (HepG2 [18]) was 0.25 µM. The Activity (Huh-7 [19]) was “Active”, the Activity (Huh-7 [20]) was “Dose-dependent effect” and the IC50 (Huh-7 [21]) was 10 µM. The Activity (Huh-7 [22]) was “Active”, the Activity (Huh-7 [23]) was “Active” and the inhibition [24] was “Active”. For the same compound, the Activity (Huh-7 [25]) was “Active”, the inhibition [26] was “Active” and the Activity (Huh-7 [27]) was “Active”. For the same compound, the inhibition [28] was “Active”, the Activity (Huh-7 [29]) was “Active” and the Activity (HepG2 [30]) was “inactive”.
